Measurements as given in patent US20090325964A1, “Piperazine Metabotropic Glutamate Receptor 5 (MGLUR5) Negative Allosteric Modulators For Anxiety/Depression” (Wyeth, priority 2008, published 2009).

Experiments:
[1] = target: T1, rat mGluR5 receptor (Rattus norvegicus, UniProt P31424); experiment: [3H]-MPEP displacement binding assay, HEK-293 cell membranes expressing rat mGluR5; conditions: [3H]-MPEP displacement, rat mGluR5 membranes; read-out: Median Ki
T1 construct: expressed in transfected cells; host or cells: HEK-293
T1 sequence (P31424 21-1203): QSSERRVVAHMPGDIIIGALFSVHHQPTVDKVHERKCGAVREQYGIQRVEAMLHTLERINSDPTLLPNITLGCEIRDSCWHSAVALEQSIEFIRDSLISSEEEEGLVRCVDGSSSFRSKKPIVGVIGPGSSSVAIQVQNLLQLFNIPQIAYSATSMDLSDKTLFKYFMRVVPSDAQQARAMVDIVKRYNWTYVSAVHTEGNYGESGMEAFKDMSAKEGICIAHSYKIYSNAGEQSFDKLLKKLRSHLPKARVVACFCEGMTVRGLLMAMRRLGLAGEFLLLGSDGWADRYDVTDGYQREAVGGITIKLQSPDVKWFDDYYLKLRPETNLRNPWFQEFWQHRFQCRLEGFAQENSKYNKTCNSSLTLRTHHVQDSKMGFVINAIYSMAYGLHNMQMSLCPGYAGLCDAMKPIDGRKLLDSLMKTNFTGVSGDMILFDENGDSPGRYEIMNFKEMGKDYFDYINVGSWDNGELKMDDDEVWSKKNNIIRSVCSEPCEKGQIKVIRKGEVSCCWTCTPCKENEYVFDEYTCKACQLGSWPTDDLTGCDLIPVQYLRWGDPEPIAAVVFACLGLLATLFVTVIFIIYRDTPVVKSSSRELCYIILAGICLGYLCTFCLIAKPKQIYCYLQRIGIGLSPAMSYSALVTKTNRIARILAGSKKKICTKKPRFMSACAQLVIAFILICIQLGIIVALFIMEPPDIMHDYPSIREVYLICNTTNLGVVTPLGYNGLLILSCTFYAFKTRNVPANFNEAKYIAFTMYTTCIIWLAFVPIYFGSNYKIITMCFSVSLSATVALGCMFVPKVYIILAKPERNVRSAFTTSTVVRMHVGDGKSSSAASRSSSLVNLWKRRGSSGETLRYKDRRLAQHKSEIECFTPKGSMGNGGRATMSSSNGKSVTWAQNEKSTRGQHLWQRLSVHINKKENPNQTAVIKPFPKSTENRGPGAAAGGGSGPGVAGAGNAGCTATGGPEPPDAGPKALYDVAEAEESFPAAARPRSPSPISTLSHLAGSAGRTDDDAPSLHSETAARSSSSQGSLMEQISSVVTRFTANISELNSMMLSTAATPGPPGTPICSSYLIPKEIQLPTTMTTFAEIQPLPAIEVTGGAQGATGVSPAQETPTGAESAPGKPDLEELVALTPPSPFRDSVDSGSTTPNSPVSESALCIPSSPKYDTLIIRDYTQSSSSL
In short: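 Membranes from HEK-293 cells expressing rat mGluR5 (12-25 μg protein), incubated 60 min at room temperature with 4 nM [3H]-MPEP in 50 mM Tris pH 7.5, then filtered. Nonspecific binding defined with 10 μM MPEP.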

[2] = target: mGluR5 (Rattus norvegicus, UniProt P31424); experiment: IC50 column under 'Biological Activity' (assay not identified in the shown text; not the binding Ki)
Sequence of mGluR5 (P31424 21-1203): as above

Ki [1] | IC50 [2] | Compound
10 nM | 131 nM | O=C(c1ccc(Cl)c(C#Cc2ccccn2)c1)N1CCN(c2ncccn2)CC1 [Compound 387, 2-{4-[4-chloro-3-(pyridin-2-ylethynyl)benzoyl]piperazin-1-yl}pyrimidine]
7 nM | 13 nM | O=C(c1ccc(OC(F)F)c(C#Cc2ccccn2)c1)N1CCN(c2ccccn2)CC1 [Compound 385, 1-{[4-(Difluoromethoxy)-3-(pyridin-2-ylethynyl)phenyl]carbonyl}-4-pyridin-2-ylpiperazin]
13 nM | 94 nM | O=C(c1ccc(Cl)c(C#Cc2ccccn2)c1)N1CCN(c2cnccn2)CC1 [Compound 388, 2-{4-[4-chloro-3-(pyridin-2-ylethynyl)benzoyl]piperazin-1-yl}pyrazine]
79 nM | 1490 nM | O=C(c1ccc(Cl)c(C#Cc2ccccn2)c1)N1CCN(c2ccncc2)CC1 [Compound 391, 1-[4-chloro-3-(pyridin-2-ylethynyl)benzoyl]-4-pyridin-4-ylpiperazine]
12 nM | 144 nM | O=C(c1ccc(Cl)c(C#Cc2ccccn2)c1)N1CCN(c2cccc(O)c2)CC1 [Compound 393, 3-(4-{[4-chloro-3-(pyridin-2-ylethynyl)phenyl]carbonyl}piperazin-1-yl)phenol]
3 nM | 39 nM | O=C(c1ccc(Cl)c(C#Cc2ccccn2)c1)N1CCN(c2ccccn2)CC1 [Compound 386, 1-[4-chloro-3-(pyridin-2-ylethynyl)benzoyl]-4-pyridin-2-ylpiperazin]
1 nM | 41 nM | O=C(c1ccc(OC(F)F)c(C#Cc2ccccn2)c1)N1CCN(c2nsc3ccccc23)CC1 [Compound 383, 3-(4-{[4-(difluoromethoxy)-3-(pyridin-2-ylethynyl)phenyl]carbonyl}piperazin-1-yl)-1,2-benzisothiazole]
4 nM | 53 nM | O=C(c1ccc(C(F)(F)F)c(C#Cc2ccccn2)c1)N1CCN(c2noc3ccccc23)CC1 [Compound 374, 3-(4-{[3-(pyridin-2-ylethynyl)-4-(trifluoromethyl)phenyl]carbonyl}piperazin-1-yl)-1,2-benzisoxazole]
7 nM | 39 nM | O=C(c1ccc(Cl)c(C#Cc2ccccn2)c1)N1CCN(c2nccs2)CC1 [Compound 390, 1-[4-chloro-3-(pyridin-2-ylethynyl)benzoyl]-4-(1,3-thiazol-2-yl)piperazine]
40 nM | 34 nM | COc1ccnc(N2CCN(C(=O)c3ccc(C(F)(F)F)c(C#Cc4ccccn4)c3)CC2)n1 [Compound 373, 4-methoxy-2-(4-{[3-(pyridin-2-ylethynyl)-4-(trifluoromethyl)phenyl]carbonyl}piperazin-1-yl)pyrimidine]
31 nM | 30 nM | O=C(c1ccc(C(F)(F)F)c(C#Cc2ccccn2)c1)N1CCN(c2ccccn2)CC1 [Compound 369, 1-pyridin-2-yl-4-{[3-(pyridin-2-ylethynyl)-4-(trifluoromethyl)phenyl]carbonyl}piperazine]
21 nM | 145 nM | O=C(c1ccc(Cl)c(C#Cc2ccccn2)c1)N1CCN(c2ncccc2Cl)CC1 [Compound 394, 1-(3-chloropyridin-2-yl)-4-{[4-chloro-3-(pyridin-2-ylethynyl)phenyl]carbonyl}piperazine]
19 nM | 113 nM | COc1cccc(N2CCN(C(=O)c3ccc(Cl)c(C#Cc4ccccn4)c3)CC2)c1 [Compound 395, 1-{[4-chloro-3-(pyridin-2-ylethynyl)phenyl]carbonyl}-4-(3-methoxyphenyl)piperazine]
35 nM | 104 nM | COc1nc(N2CCN(C(=O)c3ccc(OC(F)F)c(C#Cc4ccccn4)c3)CC2)ncc1Br [Compound 382, 5-bromo-2-(4-{[4-(difluoromethoxy)-3-(pyridin-2-ylethynyl)phenyl]carbonyl}piperazin-1-yl)-4-methoxy pyrimidine]
